The record followed here is patent US9132108B2, “Pharmaceutical composition for ameliorating and/or preventing leptin resistance, and use thereof” (HIROSHIMA UNIVERSITY, priority 2009, dated 2015).

Common to all, as to type: in vivo, mouse
Assay [1] concerns mice given high-fat diet (leptin resistance). Kind of assay: Leptin-induced inhibition of food intake (Example 7). The settings on record: Group 4 (high-fat diet+flurbiprofen); 10 mg/kg per day orally, 8 weeks; leptin 0.5 mg/kg i.p.; no significant difference vs Group 1. On the procedure: Specifically, 4 weeks-old male mice (C57BL/6 Cr Slc) were divided into four groups each consisting of 6-8 mice. Mice of individual groups were given diets as follows for 8 weeks similarly with Example 5. • Group 1: Normal diet (10 kcal % fat) only • Group 2: High-fat diet (60 kcal % fat) only • Group 3: Normal diet+flurbiprofen • Group 4: High-fat diet+flurbiprofen
Flurbiprofen (F8514, produced by SIGMA) was diluted with drinking water so that the administration amount of flurbiprofen would be 10 mg/kg per day, and was orally administered to the mice in the form of drinking water.
FIG. 11 is a drawing showing the procedure of the test in Example 7. […] The mice were then habituated for 3 days. Day 0 was the date when the isolation started. In order to eliminate the influence of injection on feeding behavior, 5 mL/kg of physiological saline was intraperitoneally (i.p.) administered as dummy on Days 3 and 4. […]
Subsequently, 0.5 mg/kg of leptin (498-OB, rmLeptin, produced by R&D systems) was intraperitoneally (i.p.) administered on Day 6 and the amount of food intake up to 24 hours after the leptin administration was measured on Day 7. Using the ratio of the amount of food intake on Days 6 and 7 to the amount of food intake on Days 5 and 6 as a reference index, what influence leptin had on the amount of food intake (rate of change in amount of food intake) was analyzed. […]

For assay [2], the system named is mice given high-fat diet for 6 months (leptin resistance). Description: Visceral fat of leptin-resistant mice, therapeutic effect (Example 8). The settings on record: 3 weeks after flurbiprofen administration, 3 mg/kg per day orally; vs control group; P<0.01. From the text:
In Example 8, effectiveness of flurbiprofen in ameliorating leptin resistance was confirmed by measuring a change in body weight of mice as a reference index. Specifically, 4 weeks-old male mice (C57BL/6 Cr Slc) had been given high-fat diet for 6 months so that leptin resistance would be induced in the mice. Thereafter, the mice were divided into two groups (each consisting of 14 mice), and the mice of individual groups were given the following diets for 3 weeks. • Control group (Cont): normal diet (10 kcal % fat) only • Flurbiprofen-administered group (Ful): normal diet+flurbiprofen Flurbiprofen (F8514, produced by SIGMA) was diluted with drinking water so that the administration amount of flurbiprofen would be 3 mg/kg per day, and was orally administered to the mice in the form of drinking water. The rates of change in body weight of the mice of individual groups were measured with the date when administration of flurbiprofen started (0 week) as a reference. Further, the amount of visceral fat (g) was measured. The visceral fat was extracted from abdomens of the mice and wet weight thereof was measured. FIG. 14 is a graph showing the amount of visceral fat (g) of the mice of the control group and the mice of the flurbiprofen-administered group which had been given normal diet for 3 weeks. […]

In assay [3] the test system is STAT3 phosphorylation in hypothalami. Description: Western blotting of STAT3 phosphorylation in hypothalami 30 min after leptin injection (Example 2). The settings on record: Group 4 (high-fat diet+flurbiprofen) vs Group 2; approximately 10 mg/kg per day orally, 8 weeks; 30 minutes after leptin 1 mg/kg via tail vein; significance level <1%. On the procedure: 4 weeks-old male mice (C57BL/6 Cr Slc) had been given normal diet (10 kcal % fat, D12450B, produced by Research Diets, Inc.) or high-fat diet (60 kcal % fat, D12492, produced by Research Diets, Inc.). Flurbiprofen was diluted with drinking water so that the administration amount of flurbiprofen would be approximately 10 mg/kg per day, and was orally administered to the mice in the form of drinking water.
Specifically, mice were divided into four groups each consisting of 7-8 mice. Mice of individual groups were given diets as follows. • Group 1: Normal diet (10 kcal % fat) only • Group 2: High-fat diet (60 kcal % fat) only • Group 3: Normal diet+flurbiprofen • Group 4: High-fat diet+flurbiprofen
A solution prepared by solving mouse-derived leptin (450-31, produced by PeproTech Inc. or 498-OB, rmLeptin, produced by R&D systems) in physiological saline was non-orally administered via tail vein to the mice, which had been given high-fat diet or normal diet for 8 weeks. The non-oral administration was done in such a manner that the administration amount of leptin would be 1 mg/kg. As a control for leptin administration, physiological saline in equal amount was administered to the mice via tail vein.
FIGS. 4 and 5 show the result of Western blotting of STAT3 phosphorylation in hypothalami of mice 30 minutes after leptin injection. […]
On the technique in general: Immunoblotting shows a protein as a band on a membrane.

On to `C[C@@H](C(=O)O)c1ccc(-c2ccccc2)c(F)c1` [flurbiprofen], for which, in assay [1], the “rate of change in amount of food intake after leptin administration” value was “reduced food intake caused by leptin”. The “amount of visceral fat” value in assay [2] was “significantly decreased”. The “intensity of STAT3 phosphorylation in hypothalami” value in assay [3] was “significantly higher”.
